Measurements reported in ChEMBL document CHEMBL5143558, “Synthesis of sorbicillinoid analogues with anti-inflammation activities” (Bioorg Med Chem, 2022).
Calls of active or inactive are those of the source. The rule behind the calls is not given here.

How the values were obtained:
[1] = Toxicity in mouse RAW264.7 cells assessed as reduction in cell vaibility at 10 uM; assay type: cell-based; conditions: raw264.7, 10 µM
[2] = tested on: RAW264.7; assay: Anti-inflammatory activity in mouse RAW264.7 cells assessed as inhibition of LPS-induced p-NFkappaB protein expression at 10 uM incubated for 24 hrs by Western blot analysis; assay type: functional, cell-based
[3] = tested on: RAW264.7; assay: Anti-inflammatory activity in mouse RAW264.7 cells assessed as inhibition of LPS-induced iNOS protein expression at 10 uM incubated for 24 hrs by Western blot analysis; assay type: functional, cell-based
[4] = tested on: RAW264.7; assay: Anti-inflammatory activity in mouse RAW264.7 cells assessed as inhibition of LPS-induced NO production at 10 uM; assay type: functional, cell-based
[5] = tested on: RAW264.7; assay: Anti-inflammatory activity in mouse RAW264.7 cells assessed as inhibition of LPS-induced NO production at 20 uM; assay type: functional, cell-based
[6] = tested on: RAW264.7; assay: Anti-inflammatory activity in mouse RAW264.7 cells assessed as inhibition of LPS-induced NO production at 1 to 20 uM incubated for 24 hrs; assay type: functional, cell-based; conditions: dose 1-20 µM, DDE = dose-dependent effect
[7] = Toxicity in mouse RAW264.7 cells assessed as reduction in cell vaibility at 20 uM incubated for 24 hrs; assay type: cell-based; conditions: raw264.7, 24 h
[8] = tested on: RAW264.7; assay: Anti-inflammatory activity in mouse RAW264.7 cells assessed as inhibition of LPS-induced iNOS protein expression at 1 to 20 uM incubated for 24 hrs by Western blot analysis; assay type: functional, cell-based; conditions: dose 1-20 µM, DDE = dose-dependent effect

For `C/C=C/C=C/C(=O)Oc1ccc(C)c(OC(=O)/C=C/C=C/C)c1C`, the Activity [1] was “Non-Toxic”.

For `Cc1cc(C(=O)CCc2ccccc2)c(O)c(C)c1O`, the Activity [1] was “Non-Toxic” and the inhibition [2] was “Active”.

With `C/C=C/C(=O)c1cc(C)c(O)c(C)c1O` the inhibition [3] was “Active”, the Activity [1] was “Non-Toxic” and the inhibition [4] was “Active”.

In the case of `COc1cc(/C=C/C(=O)CC(=O)/C=C/c2ccc(O)c(OC)c2)ccc1O`, the inhibition [5] is reported as “Active”.

In the case of `COc1cc(/C=C/C(=O)c2cc(C)c(O)c(C)c2O)cc(OC)c1OC`, the inhibition [3] is reported as “Active”, the Activity [1] is reported as “Non-Toxic” and the inhibition [6] is reported as “Dde”. The Activity [7] was “Non-Toxic”, the inhibition [8] was “Dde” and the inhibition [4] was “Active”.

With `C[C@]12CCC(=O)C=C1CC[C@@H]1[C@@H]2[C@@H](O)C[C@@]2(C)[C@H]1CC[C@]2(O)C(=O)CO` the inhibition [5] was “Active”.

With `COc1cc(O)c(C(=O)/C=C/c2ccc(F)cc2)cc1C` the inhibition [3] was “Active”, the Activity [1] was “Non-Toxic” and the inhibition [4] was “Active”.

In the case of `COc1ccc(/C=C/C(=O)c2cc(C)c(O)c(C)c2O)cc1`, the inhibition [3] is reported as “Active”, the Activity [1] is reported as “Non-Toxic” and the inhibition [4] is reported as “Active”.

In the case of `Cc1cc(C(=O)/C=C/c2ccc(F)cc2)c(O)c(C)c1OC(=O)/C=C/c1ccc(F)cc1`, the inhibition [3] is reported as “Active” and the Activity [1] is reported as “Non-Toxic”.

For `Cc1ccc(/C=C/C(=O)c2cc(C)c(O)c(C)c2O)cc1`, the inhibition [3] was “Active”, the Activity [1] was “Non-Toxic” and the inhibition [4] was “Active”.

For `Cc1cc(C(=O)/C=C/c2ccccc2)c(O)c(C)c1O`, the inhibition [3] was “Active”, the Activity [1] was “Non-Toxic” and the inhibition [4] was “Active”. For the same molecule, the inhibition [2] was “Active”.

For `COc1cc(OC)c(C(=O)/C=C/c2cc(OC)c(OC)c(OC)c2)cc1C`, the inhibition [3] was “Active”, the Activity [1] was “Non-Toxic” and the inhibition [4] was “Active”.

With `COc1cc(O)c(C(=O)/C=C/c2ccccc2)cc1C` the inhibition [3] was “Active”, the Activity [1] was “Non-Toxic” and the inhibition [4] was “Active”.

In the case of `COc1cc(/C=C/C(=O)c2cc(C)c(OC)c(C)c2OC)cc(OC)c1OC`, the inhibition [3] is reported as “Active”, the Activity [1] is reported as “Non-Toxic” and the inhibition [4] is reported as “Active”.

For `C/C=C/C(=O)c1cc(C)c(OC)cc1OC`, the inhibition [3] was “Active”, the Activity [1] was “Non-Toxic” and the inhibition [4] was “Active”.

For `COc1cc(OC)c(C(=O)/C=C/c2ccccc2)cc1C`, the inhibition [3] was “Active”, the Activity [1] was “Non-Toxic” and the inhibition [4] was “Active”.

For `Cc1cc(C(=O)/C=C/c2ccc(Cl)cc2)c(O)c(C)c1OC(=O)/C=C/c1ccc(Cl)cc1`, the inhibition [3] was “Active” and the Activity [1] was “Non-Toxic”.

For `C/C=C/C(=O)c1cc(C)c(O)cc1O`, the inhibition [3] was “Active”, the Activity [1] was “Non-Toxic” and the inhibition [4] was “Active”.

In the case of `Cc1ccc(OC(=O)/C=C/c2ccc(Cl)cc2)c(C)c1OC(=O)/C=C/c1ccc(Cl)cc1`, the inhibition [3] is reported as “Active”, the Activity [1] is reported as “Non-Toxic” and the inhibition [4] is reported as “Active”.

For `COc1cc(OC)c(C(=O)/C=C/c2ccc(F)cc2)cc1C`, the inhibition [3] was “Active”, the Activity [1] was “Non-Toxic” and the inhibition [4] was “Active”.

In the case of `C/C=C/C=C/C(=O)Oc1c(C)cc(C(=O)/C=C/C=C/C)c(O)c1C`, the inhibition [3] is reported as “Active”, the Activity [1] is reported as “Non-Toxic” and the inhibition [4] is reported as “Active”.

With `C/C=C/C(=O)Oc1c(C)cc(C(=O)/C=C/C)c(O)c1C` the inhibition [3] was “Active”, the Activity [1] was “Non-Toxic” and the inhibition [4] was “Active”.

For `Cc1cc(C(=O)/C=C/c2ccc(F)cc2)c(O)cc1O`, the inhibition [3] was “Active”, the Activity [1] was “Non-Toxic” and the inhibition [4] was “Active”.

With `Cc1cc(C(=O)/C=C/c2ccc(F)cc2)c(O)c(C)c1O` the inhibition [3] was “Active”, the Activity [1] was “Non-Toxic” and the inhibition [6] was “Dde”. The Activity [7] was “Non-Toxic”, the inhibition [8] was “Dde” and the inhibition [4] was “Active”.

With `Cc1cc(C(=O)/C=C/c2ccc3c(c2)OCO3)c(O)c(C)c1O` the inhibition [3] was “Active” and the Activity [1] was “Non-Toxic”.

With `C/C=C/C(=O)c1cc(C)c(OC)c(C)c1OC` the inhibition [3] was “Active”, the Activity [1] was “Non-Toxic” and the inhibition [4] was “Active”.

With `CC(C)=CC(=O)Oc1ccc(C)c(OC(=O)C=C(C)C)c1C` the Activity [1] was “Non-Toxic” and the inhibition [2] was “Active”.

For `C/C=C/C=C/C(=O)c1cc(C)c(O)c(C)c1O`, the Activity [1] was “Non-Toxic”, the inhibition [4] was “Active” and the inhibition [2] was “Active”.

In the case of `CC(C)=CC(=O)Oc1c(C)cc(C(=O)C=C(C)C)c(O)c1C`, the inhibition [3] is reported as “Active”, the Activity [1] is reported as “Non-Toxic” and the inhibition [4] is reported as “Active”.

For `COc1ccc(/C=C/C(=O)c2cc(C)c(OC)cc2OC)cc1`, the Activity [1] was “Non-Toxic”.

In the case of `Cc1cc(C(=O)/C=C/c2ccccc2)c(O)cc1O`, the inhibition [3] is reported as “Active”, the Activity [1] is reported as “Non-Toxic” and the inhibition [4] is reported as “Active”.
